Common to all, as to type: cell-based
One assay relates to SREBP-1. Kind of assay: SREBP-1 expression in cultured primary human hepatocytes. Conditions: procedure of Example 6, read-out: SREBP-1 mRNA inhibition (EC50). The protocol: (§1) FIG. 9. Effects of HPN-01 on the expression of SREBP-1 (master regulator of hepatic glucose metabolism and fatty acid synthesis) and SREBP-2 (master regulator of cholesterol homeostasis in cells) in cultured primary human hepatocytes.
(§2) Cultured primary human hepatocytes were treated with various concentrations of HPN-01, and the expression levels of SREBP-1 (master regulator of hepatic glucose metabolism and fatty acid synthesis) and SREBP-2 (master regulator of cholesterol homeostasis in cells) were subsequently determined.
(§3) The ability of each HPN-01 derivative obtained from the synthesis methods described above, to inhibit SREBP-1 and SREBP-2 mRNA expression in primary hepatocytes, was tested using the procedure outlined in Example 6. The results of this analysis are shown in Table 6 (third and fourth columns).

The next assay has as its system Huh7 cells. As to the kind of experiment: LD content in Huh7 cells pre-treated with insulin, Oil-Red-O staining, absorbance OD 540 nm. Conditions: procedure of Example 3, read-out: LD content inhibition (EC50). The protocol:
FIG. 6. […] Spectrophotometric absorbance of untreated or HPN-01-treated Huh7 cells pre-incubated with 1 mM insulin is shown. LD contents were stained using Oil Red O, and measured by determining spectrophotometer absorbance under OD 540 nm.
Huh7 cells were mock treated or pre-treated with 1 mM insulin, and subsequently treated with indicated amounted of HPN-01.
The ability of each HPN-01 derivative obtained from the synthesis methods described above, to inhibit LD formation in hepatocytes, was tested using the procedure outlined in Example 3. The results of this analysis are shown below in Table 6 (second column).

In a further assay the test system is SREBP-2. Kind of assay: SREBP-2 expression in cultured primary human hepatocytes. Conditions: procedure of Example 6, read-out: SREBP-2 mRNA inhibition (EC50). On the procedure: as §1, §2, §3
The mark [1] stands for this setting: Homo sapiens, Huh-7, Huh7 cells.

Where two headings read alike, the source gives them in different places.

Turning to `Nc1c(C(=O)Nc2ccc(F)c(F)c2)cc(-c2ccc(Br)cc2)cc1-c1ccc(S(N)(=O)=O)cc1` [HPN-01616, 4′-amino-4-bromo-N-(3,4-difluorophenyl)-4″-sulfamoyl-[1,1′:3′,1″-terphenyl]-5′-carboxamide], the EC50 – broadly, the midpoint of the concentration-response curve – was 3570 nM with SREBP-1 (Homo sapiens, Hepatocyte); 1070 nM with Huh7 cells (setting [1]); 6790 nM with SREBP-2 (Homo sapiens, Hepatocyte).
Take `NC(=O)c1cc(C#CCOC(=O)c2ccc[nH]2)cc(-c2ccc(S(N)(=O)=O)cc2)c1N` [HPN-01222, 3-(6-amino-5-carbamoyl-4′-sulfamoyl-[1,1′-biphenyl]-3-yl)prop-2-yn-1-yl 1H-pyrrole-2-carboxylate]: the EC50 in the assay on SREBP-1 (Homo sapiens, Hepatocyte) was 7310 nM; in the assay on Huh7 cells (setting [1]), 1360 nM; in the assay with SREBP-2 (Homo sapiens, Hepatocyte), 12800 nM.
For `CCCNC(=O)c1cc(-c2ccc(Br)cc2)cc(-c2ccc(S(N)(=O)=O)cc2)c1N` [HPN-01604, 4′-amino-4-bromo-N-propyl-4″-sulfamoyl-[1, 1′:3′,1″-terphenyl]-5′-carboxamide], the concentration giving a half-maximal response (EC50) came out at 1950 nM in the assay with SREBP-1 (Homo sapiens, Hepatocyte); 1140 nM with Huh7 cells (setting [1]); 5710 nM in the assay with SREBP-2 (Homo sapiens, Hepatocyte).
For `NC(=O)c1cc(C#Cc2cccc(Br)c2)cc(-c2ccc(S(N)(=O)=O)cc2)c1N` [HPN-01208, 2-amino-5-((3-bromophenyl)ethynyl)-4′-sulfamoyl-[1,1′-biphenyl]-3-carboxamide], the EC50 with SREBP-1 (Homo sapiens, Hepatocyte) was found to be 3250 nM; in the assay on Huh7 cells (setting [1]), 1690 nM; in the assay with SREBP-2 (Homo sapiens, Hepatocyte), 5770 nM.
`NC(=O)c1cc(Nc2cccc(C(=O)O)c2)cc(-c2ccc(S(N)(=O)=O)cc2)c1N` [HPN-01317, 3-((6-amino-5-carbamoyl-4′-sulfamoyl-[1,1′-biphenyl]-3-yl)amino)benzoic acid]: the 50% effective concentration (EC50) in the assay with SREBP-1 (Homo sapiens, Hepatocyte) was 3350 nM; with Huh7 cells (setting [1]), 580 nM; in the assay with SREBP-2 (Homo sapiens, Hepatocyte), 4320 nM.
The corresponding values for `CCCCCCCOC(=O)/C=C/c1cc(C(N)=O)c(N)c(-c2ccc(S(N)(=O)=O)cc2)c1` [HPN-01118, heptyl (E)-3-(6-amino-5-carbamoyl-4′-sulfamoyl-[1,1′-biphenyl]-3-yl)acrylate] are 2340 nM, 840 nM and 2510 nM.
In the case of `Nc1c(C(=O)NCCO)cc(-c2ccc(Cl)cc2)cc1-c1ccc(S(N)(=O)=O)cc1` [HPN-01607, 4′-amino-4-chloro-N-(2-hydroxyethyl)-4″-sulfamoyl-[1,1′:3′,1″-terphenyl]-5′-carboxamide], the concentration giving a half-maximal response (EC50) with SREBP-1 (Homo sapiens, Hepatocyte) came to 6730 nM; with Huh7 cells (setting [1]), 3050 nM; in the assay on SREBP-2 (Homo sapiens, Hepatocyte), 12500 nM.
With `NC(=O)c1cc(-c2ccc(Cl)cc2)cc(Nc2ccc(S(N)(=O)=O)cc2)c1N` [HPN-01402, 4-amino-4′-chloro-5-((4-sulfamoylphenyl)amino)-[1,1′-biphenyl]-3-carboxamide], the 50% effective concentration (EC50) in the assay on SREBP-1 (Homo sapiens, Hepatocyte) is 1180 nM; in the assay with Huh7 cells (setting [1]), 600 nM; in the assay on SREBP-2 (Homo sapiens, Hepatocyte), 2500 nM.
`NC(=O)Nc1ccc(-c2cc(-c3ccc(Cl)cc3)cc(C(N)=O)c2NC(=O)CO)cc1` [HPN-01506, 4-chloro-4′-(2-hydroxyacetamido)-4″-ureido-[1,1′:3′,1″-terphenyl]-5′-carboxamide]: the concentration giving a half-maximal response (EC50) was 7310 nM in the assay on SREBP-1 (Homo sapiens, Hepatocyte); 6480 nM with Huh7 cells (setting [1]); 17100 nM in the assay on SREBP-2 (Homo sapiens, Hepatocyte).
Consider “4′-(2-aminoacetamido)-4-chloro-4″-ureido-[1, 1′:3′,1″-terphenyl]-5′-carboxamide [HPN-01518]”, for which the half-maximal effective concentration (EC50) in the assay on SREBP-1 came to 2920 nM; in the assay on Huh7 cells (Huh7 cells) it was 1110 nM; with SREBP-2, 4860 nM.
In the case of `NCC(=O)Nc1c(C(N)=O)cc(-c2ccc(Br)cc2)cc1-c1ccc(S(N)(=O)=O)cc1` [HPN-01527, 4′-(2-aminoacetamido)-4-bromo-4″-sulfamoyl-[1,1′:3′,1″-terphenyl]-5′-carboxamide], the EC50 was 5250 nM with SREBP-1 (Homo sapiens, Hepatocyte); 2600 nM in the assay with Huh7 cells (setting [1]); 5690 nM with SREBP-2 (Homo sapiens, Hepatocyte).
Regarding `NC(=O)c1cc(/C=C/c2cccc(Cl)c2)cc(-c2ccc(S(N)(=O)=O)cc2)c1N` [HPN-01102, (E)-2-amino-5-(3-chlorostyryl)-4′-sulfamoyl-[1,1′-biphenyl]-3-carboxamide], the EC50 in the assay on SREBP-1 (Homo sapiens, Hepatocyte) is 1610 nM; with Huh7 cells (setting [1]) it was 460 nM; with SREBP-2 (Homo sapiens, Hepatocyte), 3370 nM.
For the compound `Nc1c(C(=O)NCc2cccnc2)cc(-c2ccc(Cl)cc2)cc1-c1ccc(S(N)(=O)=O)cc1` [HPN-01630, 4′-amino-4-chloro-N-(pyridin-3-ylmethyl)-4″-sulfamoyl-[1,1′:3′,1″-terphenyl]-5′-carboxamide], the EC50 came to 3570 nM in the assay on SREBP-1 (Homo sapiens, Hepatocyte); 2390 nM in the assay with Huh7 cells (setting [1]); 3870 nM in the assay on SREBP-2 (Homo sapiens, Hepatocyte).
For `Nc1c(C(=O)NC2CC2)cc(-c2ccc(Br)cc2)cc1-c1ccc(S(N)(=O)=O)cc1` [HPN-01606, 4′-amino-4-bromo-N-cyclopropyl-4″-sulfamoyl-[1,1′:3′,1″-terphenyl]-5′-carboxamide], in that order: 1130 nM, 140 nM and 2750 nM.
As to `NC(=O)c1cc(/C=C/C(=O)Nc2ccc(Cl)cc2)cc(-c2ccc(S(N)(=O)=O)cc2)c1N` [HPN-01130, (E)-2-amino-5-(3-((4-chlorophenyl)amino)-3-oxoprop-1-en-1-yl)-4′-sulfamoyl-[1,1′-biphenyl]-3-carboxamide], the 50% effective concentration (EC50) in the assay with SREBP-1 (Homo sapiens, Hepatocyte) came to 970 nM; with Huh7 cells (setting [1]), 60 nM; in the assay on SREBP-2 (Homo sapiens, Hepatocyte), 1800 nM.
Regarding `NCCC(=O)Nc1c(C(N)=O)cc(-c2ccc(Br)cc2)cc1-c1ccc(S(N)(=O)=O)cc1` [HPN-01514, 4′-(3-aminopropanamido)-4-bromo-4″-sulfamoyl-[1,1′:3′,1″-terphenyl]-5′-carboxamide], the EC50 in the assay on SREBP-1 (Homo sapiens, Hepatocyte) came out at 2830 nM; in the assay on Huh7 cells (setting [1]), 1150 nM; in the assay on SREBP-2 (Homo sapiens, Hepatocyte), 5100 nM.
For the compound `CCCC(=O)Nc1ccc(-c2cc(-c3ccc(Cl)cc3)cc(C(N)=O)c2N)cc1` [HPN-01409, 4′-amino-4″-butyramido-4-chloro-[1,1′:3′,1″-terphenyl]-5′-carboxamide], the 50% effective concentration (EC50) in the assay on SREBP-1 (Homo sapiens, Hepatocyte) was determined as 1050 nM; with Huh7 cells (setting [1]), 500 nM; in the assay on SREBP-2 (Homo sapiens, Hepatocyte), 1420 nM.
Consider `NC(=O)c1cc(/C=C/c2cccc(F)c2)cc(-c2ccc(S(N)(=O)=O)cc2)c1N` [HPN-01104, (E)-2-amino-5-(3-fluorostyryl)-4′-sulfamoyl-[1,1′-biphenyl]-3-carboxamide], for which the EC50 in the assay on SREBP-1 (Homo sapiens, Hepatocyte) worked out at 2080 nM; in the assay on Huh7 cells (setting [1]) it was 670 nM; in the assay with SREBP-2 (Homo sapiens, Hepatocyte) it was 3260 nM.
On to `NC(=O)c1cc(-c2ccc(Cl)cc2)cc(-c2ccc(S(N)(=O)=O)cc2)c1NC(=O)c1cccnc1` [HPN-01529, N-(5′-carbamoyl-4-chloro-4″-sulfamoyl-[1,1′:3′,1″-terphenyl]-4′-yl)nicotinamide], for which the half-maximal effective concentration (EC50) in the assay with SREBP-1 (Homo sapiens, Hepatocyte) is 3090 nM; in the assay on Huh7 cells (setting [1]), 1670 nM; in the assay on SREBP-2 (Homo sapiens, Hepatocyte), 18800 nM.
Regarding `Nc1c(C(=O)NC2CC2)cc(-c2ccc(Cl)cc2)cc1-c1ccc(S(N)(=O)=O)cc1` [HPN-01605, 4′-amino-4-chloro-N-cyclopropyl-4″-sulfamoyl-[1,1′:3′,1″-terphenyl]-5′-carboxamide], the EC50 with SREBP-1 (Homo sapiens, Hepatocyte) was 1780 nM; in the assay with Huh7 cells (setting [1]), 690 nM; in the assay on SREBP-2 (Homo sapiens, Hepatocyte) it was 2350 nM.
The corresponding values for `COc1cccc(NC(=O)c2cc(-c3ccc(Cl)cc3)cc(-c3ccc(S(N)(=O)=O)cc3)c2N)c1` [HPN-01619, 4′-amino-4-chloro-N-(3-methoxyphenyl)-4″-sulfamoyl-[1, 1′:3′,1″-terphenyl]-5′-carboxamide] are 4180 nM, 1330 nM and 7950 nM.
The corresponding values for `NC(=O)c1cc(C#CCOC(=O)c2ccc(O)cc2)cc(-c2ccc(S(N)(=O)=O)cc2)c1N` [HPN-01220, 3-(6-amino-5-carbamoyl-4′-sulfamoyl-[1,1′-biphenyl]-3-yl)prop-2-yn-1-yl 4-hydroxybenzoate] are 1590 nM, 460 nM and 3210 nM.
Turning to `NC(=O)c1cc(C2CCC(Br)CC2)cc(-c2ccc(S(N)(=O)=O)cc2)c1N` (stereo not drawn) [HPN-01322, 2-amino-5-(4-bromocyclohexyl)-4′-sulfamoyl-[1,1′-biphenyl]-3-carboxamide], the half-maximal effective concentration (EC50) was 1620 nM in the assay with SREBP-1 (Homo sapiens, Hepatocyte); 830 nM with Huh7 cells (setting [1]); 2550 nM in the assay with SREBP-2 (Homo sapiens, Hepatocyte).
For the compound `NC(=O)c1cc(-c2ccc(Cl)cc2)cc(Sc2ccc(S(N)(=O)=O)cc2)c1N` [HPN-01403], the EC50 with SREBP-1 was determined as 1960 nM; with Huh7 cells (Huh7 cells), 360 nM; in the assay with SREBP-2 it was 3090 nM.
For `NC(=O)c1cc(-c2ccc(Cl)cc2)cc(N2CCN(S(N)(=O)=O)CC2)c1N` [HPN-01427, 4-amino-4′-chloro-5-(4-sulfamoylpiperazin-1-yl)-[1,1′-biphenyl]-3-carboxamide], the half-maximal effective concentration (EC50) came out at 3320 nM in the assay with SREBP-1 (Homo sapiens, Hepatocyte); 1110 nM with Huh7 cells (setting [1]); 3830 nM in the assay with SREBP-2 (Homo sapiens, Hepatocyte).
Turning to `NC(=O)c1cc(-c2ccc(Cl)cc2)cc(-c2ccc(OP(=O)(O)O)cc2)c1N` [HPN-01405, 6′-amino-5′-carbamoyl-4″-chloro-[1,1′:3′,1″-terphenyl]-4-yl dihydrogen phosphate], the values for the EC50 with SREBP-1 (Hepatocyte), in the assay with Huh7 cells (setting [1]) and with SREBP-2 (Hepatocyte) were 2500 nM, 760 nM and 3980 nM, respectively.

The values above are taken from patent US11000491B2, “Amino-aryl-benzamide compounds and methods of use thereof” (HEPANOVA, INC., priority 2017, dated 2021).
